Read-outs that look alike come from different tables or passages of the source.
Assays:
[1] = Phase I metabolic stability in human liver microsomes (with NADPH); format: in vitro ADME; details: pH 7.4, presence of NADPH, mean ± SD, n = 3
Procedure: We evaluated the Phase I metabolic stability of compounds 2−7 and 14−19 using rat and human liver microsomes, as previously described.[45]
Phase I metabolic stability assays were conducted using rat and human liver microsomes as previously described[45],[70] with minor modifications. In brief, the reactions were carried out with 100 mM potassium phosphate buffer, pH 7.4, in the presence of NADPH regenerating system (1.3 mM NADPH, 3.3 mM glucose 6-phosphate, 3.3 mM MgCl2, 0.4 U/mL glucose-6-phosphate dehydrogenase, 50 μM sodium citrate). Negative controls without cofactors were assessed to determine the non-CYP-mediated metabolism. Compound disappearance was monitored over time using a liquid chromatography and tandem mass spectrometry (LC/MS) method. All reactions were performed in triplicate.
Chromatographic analysis was performed on a Dionex ultra high-performance LC system coupled with Q Exactive Focus orbitrap mass spectrometer (Thermo Fisher Scientific Inc., Waltham MA). Separation was achieved using Agilent Eclipse Plus column (100 × 2.1 mm^2 i.d.; maintained at 35 °C) packed with a 1.8 μm C18 stationary phase. […] The total run time for each analyte was 6.5 min. Pumps were operated at a flow rate of 0.3 mL/min. The mass spectrometer controlled by Xcalibur software 4.0.27.13 (Thermo Scientific) was operated with a HESI ion source in positive ionization mode. Compounds were identified in the full-scan mode (from m/z 50 to 750) by comparing t = 0 samples with t = 30 min and t = 60 min samples.

[2] = Pharmacokinetics study in rats (plasma and brain); format: in vivo, Sprague−Dawley rats; details: rat, 10 mg/kg IP
Procedure: Given their adequate in vitro stability profiles, we next evaluated the in vivo pharmacokinetic profiles of 14, 15, 17, and 18 in rats. Sprague−Dawley rats were dosed with 5 mg/kg (14, 15, 17) or 10 mg/kg (18), i.p., and plasma and brain levels of each drug were measured 0−6 h postdose.
All animal experiments were performed following the protocols evaluated and approved by the Animal Care and Use Committee at Johns Hopkins University (Ethics Approval Number: RA24M403). Pharmacokinetic studies in Sprague−Dawley (SD) rats were conducted according to protocols approved. SD rats obtained from Harlan were maintained on a 12 h light−dark cycle with ad libitum access to food and water. Test compound was administered via i.p. injection at a dose of 10 mg/kg (100% saline vehicle, 10 mL/kg volume). The rats were sacrificed at specified time points (0.25, 0.5 h, 1, 2, 4, and 6 h) post drug administration. For the collection of plasma and brain tissue, animals were euthanized with CO2, and blood samples were collected in heparinized microtubes by cardiac puncture. Brains were dissected and immediately flash-frozen (−80 °C). Blood samples were spun at 2000g for 15 min, and plasma was removed and stored at −80 °C until analysis (as described below).
Quantitation of triazole analogs 14, 15, 17, and 18 was performed using liquid chromatography with tandem mass spectrometry (LC/MS-MS) methods. Briefly, calibration standards were prepared using respective tissue (naïve plasma and brain) with additions of the test compounds. For quantifying the test compounds in the pharmacokinetic samples, plasma samples (20 μL) were processed using a single liquid extraction method by addition of 100 μL of acetonitrile containing internal standard (losartan: 0.5 μM), followed by vortex-mixing for 30 s and then centrifugation at 10,000g for 10 min at 4 °C. Brain tissues were diluted 1:5 w/v with acetonitrile containing losartan (0.5 μm) and homogenized, followed by vortex-mixing and centrifugation at 10,000g for 10 min at 4 °C. A 50 μL aliquot of the supernatant was diluted with 50 μL of water and transferred to 250 μL polypropylene autosampler vials sealed with Teflon caps. Two μL of the sample was injected into the LC/MS/MS system for analysis. Chromatographic analysis was performed using an Accela ultra high-performance system consisting of an analytical pump and an autosampler coupled with a TSQ Vantage mass spectrometer. […] The mobile phase consisted of 0.1% formic acid in acetonitrile and 0.1% formic acid in water with gradient elution, starting with 10% organic phase (from 0 to 1 min) linearly increasing to 95% (from 1 to 2 min), and re-equilibrating to 10% by 3 min. The total run time for each analyte was 3.5 min. Pumps were operated at a flow rate of 0.4 mL/min. […] Plasma concentrations (nmol/mL) as well as brain tissue concentrations (nmol/g) were determined and plots of mean plasma concentration versus time were constructed. Noncompartmental analysis modules in Phoenix WinNonlin version 7.0 (Certara USA, Inc., Princeton, NJ) were used to quantify exposures (AUC0−t) and half-life (t1/2).

[3] = molecular target: T1, D1 (Homo sapiens, UniProt P21728); test: PDSP primary screen and secondary assay, D1; format: binding
T1 construct: Psychoactive Drug Screening Program (PDSP)
Text: (§1) Receptor Primary Secondary Primary Secondary Primary Secondary Primary Secondary screen assay screen assay screen assay screen assay […]
(§2) inhibition in primary assessment.

[4] = molecular target: T2, D5 (Homo sapiens, UniProt P21918); test: PDSP primary screen, D5; format: binding; details: 10 µM compound
T2 construct: Psychoactive Drug Screening Program (PDSP)
Text: as §1, §2

[5] = molecular target: human D3R (Homo sapiens, UniProt P35462); test: biochemical
[6] = molecular target: human D2R long isoform (Homo sapiens, UniProt P14416); test: DiscoverX PathHunter β-arrestin recruitment assay, D2R
[7] = molecular target: T3, human D4R (Homo sapiens, UniProt P21917); test: DiscoverX PathHunter β-arrestin recruitment assay, D4R
T3 sequence (P21917 1-419): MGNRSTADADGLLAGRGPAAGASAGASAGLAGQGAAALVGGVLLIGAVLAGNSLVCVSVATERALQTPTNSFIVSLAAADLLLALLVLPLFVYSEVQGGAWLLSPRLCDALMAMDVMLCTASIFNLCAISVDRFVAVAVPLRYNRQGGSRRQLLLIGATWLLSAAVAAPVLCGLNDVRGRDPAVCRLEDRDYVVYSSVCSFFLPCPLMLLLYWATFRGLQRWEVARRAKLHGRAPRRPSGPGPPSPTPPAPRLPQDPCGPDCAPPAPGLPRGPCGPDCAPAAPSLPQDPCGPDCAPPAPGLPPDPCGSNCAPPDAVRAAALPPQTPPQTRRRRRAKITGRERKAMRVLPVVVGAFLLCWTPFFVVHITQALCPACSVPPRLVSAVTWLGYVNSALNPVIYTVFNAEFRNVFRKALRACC

[8] = antagonist mode, EC80 dopamine (1 μM), normalized to spiperone

Chain of human D2R long isoform (P14416 whole entry, canonical isoform): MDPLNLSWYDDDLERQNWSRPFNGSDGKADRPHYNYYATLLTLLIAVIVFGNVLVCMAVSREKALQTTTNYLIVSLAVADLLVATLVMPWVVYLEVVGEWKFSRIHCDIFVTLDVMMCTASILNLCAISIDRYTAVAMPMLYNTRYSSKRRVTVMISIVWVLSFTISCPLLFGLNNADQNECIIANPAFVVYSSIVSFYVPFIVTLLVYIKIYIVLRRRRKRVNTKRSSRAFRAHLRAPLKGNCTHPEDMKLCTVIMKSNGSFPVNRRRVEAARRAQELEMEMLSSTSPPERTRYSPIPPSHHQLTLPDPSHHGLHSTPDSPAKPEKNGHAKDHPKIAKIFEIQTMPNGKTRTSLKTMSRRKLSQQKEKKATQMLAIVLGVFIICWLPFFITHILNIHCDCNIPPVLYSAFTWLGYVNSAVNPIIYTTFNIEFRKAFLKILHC
T1 sequence (P21728 whole entry): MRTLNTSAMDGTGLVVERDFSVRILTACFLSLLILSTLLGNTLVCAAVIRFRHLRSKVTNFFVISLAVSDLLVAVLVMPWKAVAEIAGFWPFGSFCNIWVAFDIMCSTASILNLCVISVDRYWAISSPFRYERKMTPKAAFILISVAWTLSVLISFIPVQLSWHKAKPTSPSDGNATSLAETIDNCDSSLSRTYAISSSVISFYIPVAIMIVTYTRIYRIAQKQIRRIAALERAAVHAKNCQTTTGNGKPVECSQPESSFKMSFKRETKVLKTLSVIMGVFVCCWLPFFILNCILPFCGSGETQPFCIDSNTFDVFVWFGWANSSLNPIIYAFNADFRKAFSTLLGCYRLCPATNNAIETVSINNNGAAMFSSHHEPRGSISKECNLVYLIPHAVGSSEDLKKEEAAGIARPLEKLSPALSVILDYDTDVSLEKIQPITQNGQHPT
Chain of human D3R (P35462 whole entry, canonical isoform): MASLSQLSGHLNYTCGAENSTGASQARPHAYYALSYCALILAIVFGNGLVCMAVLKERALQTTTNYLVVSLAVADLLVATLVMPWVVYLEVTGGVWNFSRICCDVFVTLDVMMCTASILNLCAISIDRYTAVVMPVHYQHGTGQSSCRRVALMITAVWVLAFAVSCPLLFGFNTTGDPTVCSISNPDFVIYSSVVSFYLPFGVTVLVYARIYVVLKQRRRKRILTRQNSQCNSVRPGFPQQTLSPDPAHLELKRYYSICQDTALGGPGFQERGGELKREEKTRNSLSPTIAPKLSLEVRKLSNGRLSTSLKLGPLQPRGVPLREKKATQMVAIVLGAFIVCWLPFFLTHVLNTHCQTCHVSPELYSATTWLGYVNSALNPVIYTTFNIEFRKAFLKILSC
T2 sequence (P21918 whole entry): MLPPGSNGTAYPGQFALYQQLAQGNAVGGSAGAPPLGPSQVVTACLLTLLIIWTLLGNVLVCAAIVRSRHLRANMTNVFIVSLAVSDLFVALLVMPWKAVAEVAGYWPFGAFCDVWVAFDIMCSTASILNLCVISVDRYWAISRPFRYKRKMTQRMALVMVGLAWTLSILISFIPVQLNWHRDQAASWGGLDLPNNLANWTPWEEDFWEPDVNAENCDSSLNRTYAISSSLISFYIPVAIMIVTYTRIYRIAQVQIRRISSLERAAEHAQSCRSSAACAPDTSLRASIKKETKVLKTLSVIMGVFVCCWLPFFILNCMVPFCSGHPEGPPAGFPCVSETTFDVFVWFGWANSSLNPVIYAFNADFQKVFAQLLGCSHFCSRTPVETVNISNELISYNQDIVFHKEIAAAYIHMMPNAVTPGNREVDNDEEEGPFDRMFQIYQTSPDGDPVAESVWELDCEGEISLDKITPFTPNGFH

In the case of Cc1cccc(-n2cc(CN3CCN(c4cccc5ccccc45)CC3)nn2)c1 [Compound 18, 1-(Naphthalen-1-yl)-4-((1-(m-tolyl)-1H-1,2,3-triazol-4-yl)methyl)piperazine], the half-life [1] is reported as 1.02 ± 0.129 h, the Kp ([2]; Sprague-Dawley, brain and plasma, ip, 10 mg/kg, AUC brain/plasma, read-out: brain: Plasma ratio) is reported as > 2.6 and the half-life ([2]; Sprague-Dawley, brain, ip, 10 mg/kg, brain, read-out: half-life (h) brain (converted)) is reported as 2.46 h. For the same molecule, the half-life ([2]; Sprague-Dawley, plasma, ip, 10 mg/kg, plasma, read-out: half-life (h) plasma (converted)) was 2.54 h, the half-life ([2]; Sprague-Dawley, plasma, ip, 10 mg/kg, tissue not specified, read-out: half-life (converted)) was ~2.5 h and the Tmax ([2]; Sprague-Dawley, brain, read-out: Tmax (h) brain) was 0.5 h. For the same molecule, the AUC ([2]; Sprague-Dawley, plasma) was 1.36 ± 0.29 µM·h, the Cmax ([2]; Sprague-Dawley, plasma) was 700 ± 90 nM and the Tmax ([2]; Sprague-Dawley, plasma, read-out: Tmax (h) plasma) was 0.5 h. For the same molecule, the “brain: Plasma ratio” value ([2]; AUC brain/plasma, 10 mg/kg) was 2.63, the AUC brain ([2]; brain) was 3.57 ± 0.77 nmol·h/g and the Cmax brain ([2]; brain) was 2.08 ± 0.20 nmol/g. The “peak in vivo brain concentrations expected” value ([2]; from brain Cmax) was “greater than 2.0 μM”, the Ki [3] was 783 nM and the inhibition at 10 µM ([3]; 10 µM compound) was 59.3%. It also gave an inhibition at 10 µM [4] of 25.7%, a Ki [5] of 10.8 µM and an IC50 [6] of 4.7 ± 1.1 µM. For the same molecule, the “D2R Ant (%)” value [6, 8] was 87.8 ± 26.7%, the EC50 [7] was > 10 µM and the IC50 [7] was 3.6 ± 1.1 µM. The “D4R average activity at the highest tested dose” value ([7]; agonist mode, at 10 μM (Emax ND)) was “ND (8% at 10 μM)” and the “D4R Ant. (%)” value [7, 8] was 92.1 ± 12.1%.

— PMC12910498 (ACS pharmacology & translational science, 2026)
